US11384113B2, “Cobalamin derivatives and their use for the treatment of diseases caused by lack of vitamin B12 supply” (Albert-Ludwigs-Universitaet Freiburg, priority 2017, dated 2022)
Residue numbers refer to the chain shown, from its start. Like-named read-outs stand apart in the source and are kept apart here. One block for each compound: values may come before it.

What was measured:
[1] = base-on to base-off equilibrium; cited from earlier work
[2] = cited from earlier work
[3] = molecular target: T1, human recombinant CblC wild type (Homo sapiens, UniProt Q9Y4U1); type: biochemical; details: for Product under ambient conditions, Wild type CblC: dealkylation, 5 mM GSH; for Half-life of beta-axial ligand removal, Wild type CblC: human, pH 7.6
T1 sequence (Q9Y4U1 1-282): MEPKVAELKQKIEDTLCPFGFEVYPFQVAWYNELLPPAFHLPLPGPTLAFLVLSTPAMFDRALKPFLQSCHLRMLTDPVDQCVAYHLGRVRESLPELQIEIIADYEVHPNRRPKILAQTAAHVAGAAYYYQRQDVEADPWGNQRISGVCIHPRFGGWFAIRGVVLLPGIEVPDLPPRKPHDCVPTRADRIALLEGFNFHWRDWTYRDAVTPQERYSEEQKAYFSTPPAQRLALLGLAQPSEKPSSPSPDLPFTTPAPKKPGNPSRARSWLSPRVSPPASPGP
Experimental: (§1) The ability of the newly synthesized Cbl derivatives to serve as substrates for CblC was examined (FIG. 12). CblC activity was measured by UV-visible spectroscopy according to published procedures. Analysis of reaction products was performed by mass spectrometry. We measured dealkylation and de-thiolation of Co—C and Co—S bonded Cbl derivatives, respectively, by wild type and mutant CblC proteins to determine whether these reactions could be supported in patients harboring an abnormal isoform of CblC with low or no enzymatic activity.
The enzymatic activity of CblC in the presence of CyaCbl and MPGCbl as substrates was evaluated under the same experimental conditions utilized to examine dealkylation of MeCbl and AdoCbl. […] The reaction was complete in less than 10 seconds, which is the time it takes to record the first spectrum after mixing of CblC-bound to CyaCbl or MPGCbl with 5 mM GSH (FIG. 12).
(§2) First, the ability of novel cobalamins described herein was tested to act as substrate for wild type CblC and to restore the lost activity of pathogenic variants, such as mutant Arg161Gly, that leads to early-onset form of the cblC disease.

[4] = molecular target: T2, human recombinant CblC pathogenic mutant Arg161Gly (Homo sapiens, UniProt Q9Y4U1, R161G); type: biochemical; details: for Product under ambient conditions, Mutant Arg161Gly: dealkylation, 5 mM GSH; for Half-life of beta-axial ligand removal, Mutant Arg161Gly: human, pH 7.6
T2 sequence (Q9Y4U1 1-282 R161G): T1 sequence (Q9Y4U1 1-282) with R161G
Experimental: as §1, §2

[5] = test system: fibroblasts from healthy subjects; experiment: MMA in conditioned medium of control fibroblasts; type: cell-based, human
From the text: (§3) Cultured cells from control (healthy neonatal subjects) or cblC fibroblasts were supplemented without exogenous Cbl (negative control), with commercial CNCbl (current therapy control) or with the newly synthesized cobalamins (test group). The ability of these compounds to support intracellular Cbl metabolism in the absence of CblC was examined by monitoring disease biomarker metabolites Hcy and MMA levels in the conditioned medium.
(§4) The cellular response to treatment with new derivatives CyaCbl and MPGCbl in comparison with current therapeutic form CNCbl was measured. The ability of the new cobalamin derivatives CyaCbl and MPGCbl to achieve metabolic control, i.e. reduction of for example MMA production by cblC fibroblasts in culture, was examined as described in previously published experimental protocols. FIG. 13 provides a comparison of the effect of CNCbl (0.001 mM) versus the same dose of CyaCbl or MPGCbl given to cultured fibroblasts from healthy subjects (HFF, NHDF, PCS, Wiesel, Control) or from cblC patients (WG1801, WG2176, WG3354, GM10011, GM02345B, GM02452C).
(§5) Additional examination of the effect of thiolatocobalamins CyaCbl and MPGCbl and sulfur-containing alkylcobalamin Me-S-MeCbl with respect to structural analogues that are NOT available for therapy was also carried out, for comparative purposes. The results of cellular response (healthy controls and cblC patient fibroblasts) to cobalamin treatment, as reflected by MMA levels is provided in Table 6.

[6] = test system: fibroblasts isolated from patients with cblC disease; experiment: MMA in conditioned medium of cblC patient fibroblasts; type: cell-based, human
From the text: as §3, §4, §5

[7] = Controls (group value), after 7 days
[8] = Controls, after 7 days wash-off period without supplemental cobalamin
[9] = HFF control fibroblasts, after 7 days
[10] = NHDF control fibroblasts, after 7 days
[11] = Wiezel control fibroblasts, after 7 days
[12] = GM02345B cblC fibroblasts, after 7 days
[13] = GM02452C cblC fibroblasts, after 7 days
[14] = GM10011 cblC fibroblasts, after 7 days
[15] = WG1801 cblC fibroblasts, after 7 days
[16] = WG2176 cblC fibroblasts, after 7 days
[17] = WG3354 cblC fibroblasts, after 7 days
[18] = cblC patients (group value), after 7 days
[19] = cblC patients, after 7 days wash-off period without supplemental cobalamin

Compound: C/C1=C2/[N-][C@H]([C@H](CC(N)=O)[C@@]2(C)CCC(=O)NC[C@@H](C)OP(=O)([O-])O[C@H]2[C@@H](O)[C@@H](n3cnc4cc(C)c(C)cc43)O[C@@H]2CO)[C@]2(C)N=C(/C(C)=C3N=C(/C=C4N=C1[C@@H](CCC(N)=O)C\4(C)C)[C@@H](CCC(N)=O)[C@]\3(C)CC(N)=O)[C@@H](CCC(N)=O)[C@]2(C)CC(N)=O.[CH2-][C@H]1O[C@@H](n2cnc3c(N)ncnc32)[C@H](O)[C@@H]1O.[Co] [AdoCbl, Adenosylcobalamin]
pKa of base on/base off [1]: 3.50
Redox potential [V] relative to NHE ([2]; electrochemical, DMF/methanol): −1.04 V

Compound: CC1=C2N=C(C=C3N=C(C(C)=C4[N-]C(C(CC(N)=O)C4(C)CCC(=O)NCC(C)OP(=O)([O-])OC4C(CO)OC(n5cnc6cc(C)c(C)cc65)C4O)C4(C)N=C1C(CCC(N)=O)C4(C)CC(N)=O)C(CCC(N)=O)C3(C)C)C(CCC(N)=O)C2(C)CC(N)=O.CCC[CH2][Co+2] (centres unmarked) [BuCbl, butylcobalamin, reference compound]
Product under ambient conditions, Wild type CblC [3]: H2OCbl
Half-life of beta-axial ligand removal, Wild type CblC [3]: 1155 min
Product under ambient conditions, Mutant Arg161Gly [4]: No reaction
Half-life of beta-axial ligand removal, Mutant Arg161Gly [4]: 0 min

Compound: C/C1=C2/[N-][C@H]([C@H](CC(N)=O)[C@@]2(C)CCC(=O)NC[C@@H](C)OP(=O)([O-])O[C@H]2[C@@H](O)[C@@H](n3cnc4cc(C)c(C)cc43)O[C@@H]2CO)[C@]2(C)N=C(/C(C)=C3N=C(/C=C4N=C1[C@@H](CCC(N)=O)C\4(C)C)[C@@H](CCC(N)=O)[C@]\3(C)CC(N)=O)[C@@H](CCC(N)=O)[C@]2(C)CC(N)=O.[Co].[OH3+] [H2O, Aquacobalamin]
pKa of base on/base off [1]: −2.40
Redox potential [V] relative to NHE ([2]; 22° C.): 0.20 V

Product under ambient conditions, Wild type CblC [3]: H2OCbl
Half-life of beta-axial ligand removal, Wild type CblC [3]: 10 min
Product under ambient conditions, Mutant Arg161Gly [4]: Cob(II)alamin
Half-life of beta-axial ligand removal, Mutant Arg161Gly [4]: 60 min
Compound: C/C1=C2/[N-][C@H]([C@H](CC(N)=O)[C@@]2(C)CCC(=O)NC[C@H](C)OP(=O)([O-])O[C@H]2[C@@H](O)[C@@H](n3cnc4cc(C)c(C)cc43)O[C@@H]2CO)[C@]2(C)N=C(/C(C)=C3N=C(/C=C4N=C1[C@@H](CCC(N)=O)C\4(C)C)[C@@H](CCC(N)=O)[C@]\3(C)CC(N)=O)[C@@H](CCC(N)=O)[C@]2(C)CC(N)=O.[CH3-].[Co+3] [MeCbl, Methylcobalamin, reference compound]
MMA in conditioned medium [5, 7]: 0.118 μmol/mg protein
MMA in conditioned medium [5, 8]: 0.131 μmol/mg protein
MMA in conditioned medium [5, 9]: 0.106 μmol/mg protein
MMA in conditioned medium [5, 10]: 0.152 μmol/mg protein
MMA in conditioned medium [5, 11]: 0.095 μmol/mg protein
MMA in conditioned medium [6, 12]: 0.250 μmol/mg protein
MMA in conditioned medium [6, 13]: 0.243 μmol/mg protein
MMA in conditioned medium [6, 14]: 0.066 μmol/mg protein
MMA in conditioned medium [6, 15]: 0.429 μmol/mg protein
MMA in conditioned medium [6, 16]: 0.459 μmol/mg protein
MMA in conditioned medium [6, 17]: 0.891 μmol/mg protein
MMA in conditioned medium [6, 18]: 0.390 μmol/mg protein
MMA in conditioned medium [6, 19]: 0.298 μmol/mg protein
pKa of base on/base off [1]: 2.90
Redox potential [V] relative to NHE ([2]; electrochemical, 20° C.): −1.20 V

Compound: CC1=C2N=C(C=C3N=C(C(C)=C4[N-]C(C(CC(N)=O)C4(C)CCC(=O)NCC(C)OP(=O)([O-])OC4C(CO)OC(n5cnc6cc(C)c(C)cc65)C4O)C4(C)N=C1C(CCC(N)=O)C4(C)CC(N)=O)C(CCC(N)=O)C3(C)C)C(CCC(N)=O)C2(C)CC(N)=O.CSC[CH2][Co+2] (centres unmarked) [Me—S—EtCbl]
Product under ambient conditions, Wild type CblC [3]: H2OCbl/Cob(II)alamin
Half-life of beta-axial ligand removal, Wild type CblC [3]: 7.5 min
Product under ambient conditions, Mutant Arg161Gly [4]: Cob(II)alamin
Half-life of beta-axial ligand removal, Mutant Arg161Gly [4]: 11.5 min

Compound: CC1=C2N=C(C=C3N=C(C(C)=C4[N-]C(C(CC(N)=O)C4(C)CCC(=O)NCC(C)OP(=O)([O-])OC4C(CO)OC(n5cnc6cc(C)c(C)cc65)C4O)C4(C)N=C1C(CCC(N)=O)C4(C)CC(N)=O)C(CCC(N)=O)C3(C)C)C(CCC(N)=O)C2(C)CC(N)=O.CS[CH2][Co+2] (centres unmarked) [Me—S—MeCbl]
Product under ambient conditions, Wild type CblC [3]: H2OCbl/Cob(II)alamin
Half-life of beta-axial ligand removal, Wild type CblC [3]: 8.5 min
Product under ambient conditions, Mutant Arg161Gly [4]: Cob(II)alamin
Half-life of beta-axial ligand removal, Mutant Arg161Gly [4]: 12 min
MMA in conditioned medium [5, 7]: 0.122 μmol/mg protein
MMA in conditioned medium [5, 8]: 0.145 μmol/mg protein
MMA in conditioned medium [5, 9]: 0.132 μmol/mg protein
MMA in conditioned medium [5, 10]: 0.103 μmol/mg protein
MMA in conditioned medium [5, 11]: 0.132 μmol/mg protein
MMA in conditioned medium [6, 12]: 0.150 μmol/mg protein
MMA in conditioned medium [6, 13]: 0.150 μmol/mg protein
MMA in conditioned medium [6, 14]: 0.041 μmol/mg protein
MMA in conditioned medium [6, 15]: 0.254 μmol/mg protein
MMA in conditioned medium [6, 16]: 0.083 μmol/mg protein
MMA in conditioned medium [6, 17]: 0.148 μmol/mg protein
MMA in conditioned medium [6, 18]: 0.138 μmol/mg protein
MMA in conditioned medium [6, 19]: 0.177 μmol/mg protein

Compound: CC1=C2N=C(C=C3N=C(C(C)=C4[N-]C(C(CC(N)=O)C4(C)CCC(=O)NCC(C)OP(=O)([O-])OC4C(CO)OC(n5cnc6cc(C)c(C)cc65)C4O)C4(C)N=C1C(CCC(N)=O)C4(C)CC(N)=O)C(CCC(N)=O)C3(C)C)C(CCC(N)=O)C2(C)CC(N)=O.O=[N+]([O-])[Co+2] (centres unmarked) [NO2]
pKa of base on/base off [1]: −0.15

Compound: CC1=C2N=C(C=C3N=C(C(C)=C4[N-]C(C(CC(N)=O)C4(C)CCC(=O)NCC(C)OP(=O)([O-])OC4C(CO)OC(n5cnc6cc(C)c(C)cc65)C4O)C4(C)N=C1C(CCC(N)=O)C4(C)CC(N)=O)C(CCC(N)=O)C3(C)C)C(CCC(N)=O)C2(C)CC(N)=O.CC[CH2][Co+2] (centres unmarked) [PrCbl, propylcobalamin, reference compound]
Product under ambient conditions, Wild type CblC [3]: H2OCbl
Half-life of beta-axial ligand removal, Wild type CblC [3]: 318 min
Product under ambient conditions, Mutant Arg161Gly [4]: No reaction
Half-life of beta-axial ligand removal, Mutant Arg161Gly [4]: 0 min

Compound: CC1=C2N=C(C=C3N=C(C(C)=C4[N-]C(C(CC(N)=O)C4(C)CCC(=O)NCC(C)OP(=O)([O-])OC4C(CO)OC(n5cnc6cc(C)c(C)cc65)C4O)C4(C)N=C1C(CCC(N)=O)C4(C)CC(N)=O)C(CCC(N)=O)C3(C)C)C(CCC(N)=O)C2(C)CC(N)=O.N#C[S][Co+2] (centres unmarked) [SCN^−]
pKa of base on/base off [1]: 3.40

Compound: cyanocobalamin [CNCbl]
pKa of base on/base off [1]: 0.10
Redox potential [V] relative to NHE ([2]; electrochemical, DMSO/propanol): −0.76 V
